# Key:
# [1] = target: T1, Gal4 (DBD) RARγ (LBD) hybrid receptor (Homo sapiens, UniProt P13631); assay: Gal4 reporter assay to determine RAR receptor antagonist activity; assay type: cell-based; details: HEK 293 cells, antagonist mode against EC80 ATRA, 24 hours, luciferase
# T1 construct: Gal4 (DBD) RARγ (LBD), or the Gal4 (DBD) RARβ (LBD) hybrid receptor; expressed in transfected cells; host or cells: HEK 293
# T1 sequence (P13631 185-419 limits assumed): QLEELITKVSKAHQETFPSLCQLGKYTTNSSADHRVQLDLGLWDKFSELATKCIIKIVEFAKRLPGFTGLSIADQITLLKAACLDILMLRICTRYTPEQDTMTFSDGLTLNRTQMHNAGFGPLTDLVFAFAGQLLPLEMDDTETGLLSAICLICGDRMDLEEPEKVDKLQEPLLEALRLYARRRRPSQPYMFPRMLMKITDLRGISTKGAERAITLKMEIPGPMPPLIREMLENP
# Description: For cell-based assays, human embryonic kidney HEK 293 cells are transfected with receptor and reporter gene plasmids using Fugene. The reporter plasmid containing five Gal4 binding sites and a major late promoter of adenovirus upstream of the luciferase reporter cDNA is transfected together with a plasmid constitutively expressing the Gal4 DNA binding domain (DBD) and the RARα ligand binding domain (LBD), Gal4 (DBD) RARγ (LBD), or the Gal4 (DBD) RARβ (LBD) hybrid receptor using a SV40 promoter. Cells are transfected in poly-d-lysine coated T175 cm flasks in DMEM media with 5% charcoal-stripped Fetal Bovine Serum (FBS). After an overnight incubation, transfected cells are trypsinized, plated in opaque 96 well dishes in DMEM media containing 5% charcoal-stripped FBS, incubated for 4 h, and then exposed to 0.17 nM to 10 μM of test compound in half log dilutions. To determine the antagonist activity of the test compound, EC80 concentrations of agonist for each receptor is also added to the media (15 nM all-trans retinoic acid, ATRA, for RARα and RARγ, 10 nM of ATRA for RARβ). After 24 hours of incubation with compounds, cells are lysed and luciferase activity is determined. Data are fitted to a four parameter-fit logistics to determine IC50 values. The maximum % inhibition is determined versus the cellular response to 0.25% DMSO in the absence of ATRA.
# [2] = target: T2, RARγ (Homo sapiens, UniProt P13631); assay: RARγ binding assay (SPA, 3H-TTNPB competition); details: RARγ/RXRα heterodimer
# T2 construct: made in house; host or cells: baculovirus expression system
# T2 sequence (P13631 1-454): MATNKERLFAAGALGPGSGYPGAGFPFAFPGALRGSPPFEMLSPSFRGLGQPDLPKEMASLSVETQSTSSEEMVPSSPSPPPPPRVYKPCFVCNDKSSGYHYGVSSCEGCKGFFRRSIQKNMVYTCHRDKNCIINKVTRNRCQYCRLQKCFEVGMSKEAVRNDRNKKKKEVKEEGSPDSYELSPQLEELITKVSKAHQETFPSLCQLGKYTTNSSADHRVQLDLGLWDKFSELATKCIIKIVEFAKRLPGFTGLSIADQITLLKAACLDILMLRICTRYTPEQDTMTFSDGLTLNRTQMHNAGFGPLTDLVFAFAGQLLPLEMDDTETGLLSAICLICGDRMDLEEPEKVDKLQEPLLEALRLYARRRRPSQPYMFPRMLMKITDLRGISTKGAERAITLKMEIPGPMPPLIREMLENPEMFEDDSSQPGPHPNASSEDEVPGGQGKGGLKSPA
# T2 sequence (P19793 1-462 partner): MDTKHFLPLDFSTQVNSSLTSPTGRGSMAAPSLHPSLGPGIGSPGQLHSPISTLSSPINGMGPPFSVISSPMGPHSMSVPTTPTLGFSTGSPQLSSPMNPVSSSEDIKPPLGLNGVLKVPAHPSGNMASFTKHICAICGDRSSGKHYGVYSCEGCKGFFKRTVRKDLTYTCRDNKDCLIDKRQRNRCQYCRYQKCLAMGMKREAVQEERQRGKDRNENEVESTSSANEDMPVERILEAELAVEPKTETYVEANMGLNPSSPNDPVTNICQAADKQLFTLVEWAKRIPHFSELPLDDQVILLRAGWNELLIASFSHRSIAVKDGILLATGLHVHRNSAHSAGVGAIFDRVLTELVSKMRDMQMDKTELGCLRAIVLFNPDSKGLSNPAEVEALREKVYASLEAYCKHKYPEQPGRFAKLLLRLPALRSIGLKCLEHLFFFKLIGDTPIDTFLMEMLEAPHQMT
# Description: Compounds can be evaluated for binding to RARα, β and γ by measuring their ability to competitively bind to the RAR receptors when dimerized with the binding partner RXRα. Competitive binding assays may be carried out by Scintillation Proximity Assay (SPA) technology using the RARα, β or γ heterodimer (with RXRα as a partner with all the RARs) receptors prepared in a baculovirus expression system. Use the biotinylated oligonucleotide: 5′-[…]-3′ for binding of receptor to yttrium silicate streptavidin-coated SPA beads. Per well, preincubate […] with 82.7 μg SPA beads in a binding buffer containing 10 mM HEPES pH 7.8, 80 mM KCl, 0.5 mM MgCl2, 1 mM DTT, 0.5% CHAPS and 16.6 μg bovine serum albumin for 30 min at room temperature. Then spin the mixture at 2,000 rpm for 3 min to pelletize the beads-oligo mix. Remove the supernatant and resuspend the beads-oligo pellet in the same binding buffer as above, but which in addition now also contain 14% glycerol, 5 μg of sheared salmon sperm DNA, 0.5 μg of RARα, 1.0 μg of RARβ, or 0.25 μg of RARγ receptor, respectively. Carry out the binding assays in the presence of ˜11.3 μCi of ^3H 4-[(E)-2-(5,6,7,8-tetrahydro-5,5,8,8-tetramethyl-2-naphthalenyl)-1-propenyl]benzoic acid (TTNPB), and multiple concentrations of test compound ranging from (5 nM to 10 μM). Non-specific binding may be determined in the presence of 1 μM unlabeled TTNPB. Use the data to calculate an IC50 for compounds after fitting the dose-response curves to a 4-parameter logistic fit. Use the Cheng-Prusoff equation to convert IC50 (nM) values for compounds to Ki, and the Kd may be determined by saturation binding.
Compound,Kb [1],Ki [2]
"CN1CCN(C(=O)c2ccc(-n3nc(-c4ccc(C(=O)O)cc4)cc3-c3cc(C(C)(C)C)cc(C(C)(C)C)c3)cc2)CC1 [Example 1, 4-[5-(3,5-Di-tert-butylphenyl)-1-[4-(4-methylpiperazine-1-carbonyl)phenyl]pyrazol-3-yl]benzoic Acid]",23 ± 5.36 nM,1.69 nM
"CC(C)(C)c1cc(-c2cc(-c3ccc(C(=O)O)cc3)nn2-c2ccc(C(=O)N3CCOCC3)cc2)cc(C(C)(C)C)n1 [Example 8, 4-[5-(2,6-Di-tert-butyl-4-pyridyl)-1-[4-(morpholine-4-carbonyl)phenyl]pyrazol-3-yl]benzoic acid]",28.7 nM,1.58 nM
"CC(C)Sc1cc(-c2cc(-c3ccc(C(=O)O)cc3)nn2-c2ccc(C(=O)N(C)C)cc2)cc(C(C)(C)C)c1 [Example 12, 4-[5-(3-tert-Butyl-5-isopropylsulfanyl-phenyl)-1-[4-(dimethylcarbamoyl)phenyl]pyrazol-3-yl]benzoic Acid]",30.2 nM,3.06 nM
"CC(C)(C)c1cc(-c2cc(-c3ccc(C(=O)O)cc3)nn2-c2ccc(S(C)(=O)=O)cc2)cc(C(C)(C)C)c1 [Example 19, 4-[5-(3,5-Di-tert-butylphenyl)-1-(4-methylsulfonylphenyl)pyrazol-3-yl]benzoic Acid]",34.6 nM,2.76 nM

# — patent US20140275049A1, “SUBSTITUTED PYRAZOLE ANALOGS As RAR ANTAGONISTS” (Eli Lilly and Company, priority 2011, published 2014)
